Data as given in US9399145B2, “Nanoscale neuromodulating platform for retina neuron activation apparatus and method” (The Board of Trustees of the University of Illinois, priority 2005, dated 2016).
One block for each molecule: values may come before it.

Columns and labels:
[1] = target: T1, α1β2γ2(A79C) GABAARs (γ-79C) (UniProt P18507+P62813+P63138, A118C); assay: Tethering to γ-79C GABAAR-expressing oocytes, voltage clamp; type: cell-based, rat, human
T1 construct: expressed in transfected cells; host or cells: Xenopus laevis oocytes
Procedure: (§1) Oocytes expressing α1β2γ2 receptors (rat α1, rat β2 and human γ2S) were prepared and studied by two-electrode voltage-clamp recording^58 (holding potential: −70 mV; amplifier: GeneClamp500B; Axon Instruments, Foster City, Calif.). Unless otherwise indicated, oocytes were superfused with Ringer solution (physiological saline) at a rate of ˜1 mL/min. The experiments of FIGS. 35d-e, 36c-e and 47 involved periods of static bathing, i.e., halted superfusion. The γ2(A79C) subunit was prepared by site-directed mutagenesis. Oocyte electrophysiological experiments were carried out in room light. A UV light-emitting diode (peak wavelength: 365 nm; Hamamatsu Photonics, Japan) and a microscope illuminator (white light; Schott Fostec, Auburn, N.Y.) provided UV and visible stimulating light. As measured at the position of the oocyte, the intensity of the UV light at 365 nm was 220 μW/mm^2. At 440 nm, the nominal strength of the visible (white) light (referred to as high-intensity visible light) was 28 μW/mm^2, and that of the ambient room illumination was 0.045 μW/mm^2.

[2] = target: T2, α1β2γ2 GABAARs (rat α1, rat β2 and human γ2S) (UniProt P18507+P62813+P63138); assay: Two-electrode voltage clamp of α1β2γ2 GABAAR-expressing Xenopus oocytes; type: cell-based; conditions: for potentiation of the GABA response: co-applied 3 μM GABA, MPC088 1 μM, MPD021 10 or 100 μM, MPC100 10 μM; for electrophysiological activity of propofol analogs (FIG. 59), words: Xenopus oocyte expression system
T2 construct: expressed in transfected cells; host or cells: Xenopus laevis oocytes
Source text: Purple and gray bars indicate periods of presentation of UV light (purple) and high-intensity visible light (High-Vis) (gray), respectively. […] These amplitude determination conditions are denoted by numbers beneath the waveform in FIG. 35d.
In each of the MPC088 experiments, the cis-dominant form was generated by UV light during static bathing. […] Numbers beneath the waveform in FIG. 2(c) denote amplitude determination conditions for that experiment.
as §1, with “0.045 μW/mm^2. In all experiments, low-intensity visible light from the microscope illuminator (3 μW/mm^2 at 440 nm) was present at all times except those involving high-intensity visible illumination. Electrophysiological data were obtained using Clampex 8.2 (Axon Instruments), analyzed using Clampfit 10.0 (Axon Instruments) and OriginPro7.5 (OriginLab, Northampton, Mass.). All statistical analysis employed a two-sample t-test.” for “0.045 μW/mm^2.”

GABAA receptors = assay: Two-electrode voltage clamp of GABAA-expressing Xenopus oocytes; type: cell-based; conditions: for Hill coefficient n: Hill fit of normalized peak amplitudes; for EC50: Hill fit of peak amplitudes normalized to saturating muscimol response
Source text: (§2) Muscimol-biotin was synthesized wherein biotinamidoeaproic acid N-hydroxysuccinimide ester was reacted with muscimol in N-methylpyrrolidinone in the presence of diisopropylethylamine. The product was purified to homogeneity by reversed-phase HPLC. Peaks were detected by absorbance at 210 nm (FIG. 5), collected, and lyophilized to afford muscimol-biotin. The muscimol-biotin product was judged to be 97% pure by ^IH NMR spectroscopy, with no detectable contamination of the HPLC-purified product peak by muscimol (limit of detection: ca. 1%). Muscimol-biotin was dissolved in DMSO, stored at 3° C., and diluted to desired concentrations in frog Ringer before testing on the oocyte. Electrophysiology procedures used for Xenopus oocyte preparation, including GABAc expression, followed those described previously (Qian et al., 1998). Membrane currents were recorded from GABAc-expressing oocytes by 2-electrode voltage clamp apparatus. FIGS. 6-7 show results obtained for muscimol-biotin in GABAc and GABAA expressing oocytes.
(§3) FIGS. 6 and 7 show the effects of muscimol-biotin on GABAc- and GABAA expressing Xenopus oocytes. […] Right (FIG. 7): GABAA receptors. […] (B) Responses of another oocyte to 2.5 μM muscimol-biotin alone, and to co-application of 2.5 μM muscimol-biotin and 100 μM bicuculline. (C) Family of responses to varying concentrations of muscimol-biotin and to a single, saturating concentration of muscimol (200 μM thick trace) recorded from a single oocyte. (D) Normalized peak amplitudes (mean±SEM) of responses recorded from GABAA-expressing oocytes upon the application of muscimol (open circles) and muscimol-biotin (filled circles) (n=9).

GABAc receptors = target: T3, GABAc receptors (Homo sapiens, UniProt P24046); assay: Two-electrode voltage clamp of GABAc-expressing Xenopus oocytes; type: cell-based; conditions: for Hill coefficient n: Hill fit of normalized peak amplitudes; for EC50: Hill fit of peak amplitudes normalized to saturating muscimol response
T3 construct: expressed in transfected cells; host or cells: Xenopus oocytes
Source text: as §2, §3

[3] = test system: GABAARs of retinal ganglion cells; assay: Whole-cell patch clamp of isolated retinal ganglion cells; type: cell-based, rat; conditions: co-applied 100 μM PTX
Procedure: To test whether native neuronal GABAARs respond to MPC088, retinal ganglion cells (RGCs), a cell type known to abundantly express GABAARs (Ishida et al. (1988); Fischer et al. (1998); Wässle et al. (1998); Rotolo et al. (2003)), were examined. […] The cis-dominant preparation was obtained by pre-treating trans-dominant MPC088 with UV light for 5 min.
Inset: Aggregate data for direct activation by MPC088.
Experiments were conducted on enzymatically dissociated ganglion cells obtained from adult Sprague-Dawley rats (male and female, 6-16 weeks of age) (Charles River Laboratories, Wilmington, Mass.). Procedures for euthanasia, isolation of the retina, and the dissociation of retinal cells were as described previously (Ramsey et al. (2007) except that the period of retinal cell dissociation was shortened from 40 min to 20 min. Isolated ganglion cells were identified on the basis of their morphological appearance and the presence of a large voltage-gated sodium current. Whole-cell patch-clamp techniques similar to those described (Ramsey et al. (2007)) were used to record membrane current responses to test agents. The patch pipette with a resistance of 8-12 MΩ was pulled in two stages using a micro-electrode puller (Model PP830, Narishige Group, Tokyo, Japan). The pipette was filled with an intracellular solution containing 95 mM CsCH3SO3, 20 mM TEA-Cl, 10 mM glutamic acid, 1 mM BAPTA, 10 mM HEPES, 8 mM phosphocreatine di(tris), 1 mM MgATP and 0.2 mM Na2GTP; pH adjusted to 7.2 with CsOH. Cells were clamped at 0 mV (Axopatch 200B amplifier; Axon Instruments), and experimental runs were controlled by pCLAMP system software (Axon Instruments). Electrophysiological data were obtained in response to test compounds dissolved in physiological saline (Ringer solution) that consisted of 135 mM NaCl, 5 mM KCl, 2 mM CaCl2, 2 mM MgCl2, 10 mM glucose, and 5 mM HEPES, pH 7.4. Supplementation of aqueous test solutions with MPC088 was carried out by adding an aliquot of a stock solution containing the compound dissolved in dimethyl sulfoxide (DMSO). In all experiments, the amount of carrier DMSO present in the applied test solution was <1% (v/v). Test solutions were delivered from separate reservoirs by a multi-channel perfusion system. The same UV-LED used in the oocyte experiments was used for UV illumination of MPC088-supplemented test solutions. For preparation of cis-dominant MPC088, the test solution of initially trans-dominant compound underwent a 5-min UV illumination prior to its placement in the perfusion reservoir. All preparative procedures were performed in the dark, and the reservoirs and perfusion lines were light-protected with aluminum foil. As in the oocyte experiments, data were analyzed with Clampfit and plotted with Origin. Unless otherwise stated, numerical data from replicate experiments are presented as mean±SD, and all statistical analyses of data obtained from oocytes and from retinal ganglion cells employed a two-sample t-test.

T3 sequence (P24046 22-479): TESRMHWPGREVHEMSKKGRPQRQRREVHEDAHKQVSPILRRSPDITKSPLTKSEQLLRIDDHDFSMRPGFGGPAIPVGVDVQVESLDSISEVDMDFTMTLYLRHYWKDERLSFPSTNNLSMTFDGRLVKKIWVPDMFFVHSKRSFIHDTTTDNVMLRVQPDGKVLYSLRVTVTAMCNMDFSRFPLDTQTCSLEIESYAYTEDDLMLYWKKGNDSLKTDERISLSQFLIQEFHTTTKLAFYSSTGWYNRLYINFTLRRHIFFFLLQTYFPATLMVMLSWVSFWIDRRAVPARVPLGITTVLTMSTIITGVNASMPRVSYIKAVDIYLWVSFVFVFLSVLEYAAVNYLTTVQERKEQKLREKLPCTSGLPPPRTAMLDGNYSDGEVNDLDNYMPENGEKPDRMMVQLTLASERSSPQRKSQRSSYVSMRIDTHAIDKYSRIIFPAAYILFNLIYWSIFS
T2 sequence (P62813 28-455): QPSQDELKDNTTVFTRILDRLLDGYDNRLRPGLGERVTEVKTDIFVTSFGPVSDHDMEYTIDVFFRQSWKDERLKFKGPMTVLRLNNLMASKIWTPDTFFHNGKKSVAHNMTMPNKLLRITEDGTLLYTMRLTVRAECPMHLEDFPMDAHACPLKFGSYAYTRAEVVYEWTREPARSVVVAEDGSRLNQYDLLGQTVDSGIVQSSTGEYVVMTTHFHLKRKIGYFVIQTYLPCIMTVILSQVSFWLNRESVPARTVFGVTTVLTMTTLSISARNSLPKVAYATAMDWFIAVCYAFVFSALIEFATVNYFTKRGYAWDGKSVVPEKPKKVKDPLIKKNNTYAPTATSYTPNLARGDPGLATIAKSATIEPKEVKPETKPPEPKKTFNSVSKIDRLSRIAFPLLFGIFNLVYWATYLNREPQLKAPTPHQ
T2 sequence (P63138 25-474 limits assumed): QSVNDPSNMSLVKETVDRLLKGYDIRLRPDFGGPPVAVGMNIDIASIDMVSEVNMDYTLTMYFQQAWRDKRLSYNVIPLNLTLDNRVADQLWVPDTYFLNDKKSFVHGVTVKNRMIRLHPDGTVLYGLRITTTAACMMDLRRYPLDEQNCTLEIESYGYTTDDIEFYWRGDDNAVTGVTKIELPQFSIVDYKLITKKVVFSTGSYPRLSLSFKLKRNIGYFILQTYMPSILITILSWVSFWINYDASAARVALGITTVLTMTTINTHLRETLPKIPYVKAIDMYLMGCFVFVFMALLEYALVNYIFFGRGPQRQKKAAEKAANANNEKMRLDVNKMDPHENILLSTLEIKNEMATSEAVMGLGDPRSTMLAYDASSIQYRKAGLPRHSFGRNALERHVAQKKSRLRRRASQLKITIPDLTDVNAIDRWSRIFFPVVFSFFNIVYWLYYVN
T2 sequence (P18507 40-467 isoform P18507-1 limits assumed): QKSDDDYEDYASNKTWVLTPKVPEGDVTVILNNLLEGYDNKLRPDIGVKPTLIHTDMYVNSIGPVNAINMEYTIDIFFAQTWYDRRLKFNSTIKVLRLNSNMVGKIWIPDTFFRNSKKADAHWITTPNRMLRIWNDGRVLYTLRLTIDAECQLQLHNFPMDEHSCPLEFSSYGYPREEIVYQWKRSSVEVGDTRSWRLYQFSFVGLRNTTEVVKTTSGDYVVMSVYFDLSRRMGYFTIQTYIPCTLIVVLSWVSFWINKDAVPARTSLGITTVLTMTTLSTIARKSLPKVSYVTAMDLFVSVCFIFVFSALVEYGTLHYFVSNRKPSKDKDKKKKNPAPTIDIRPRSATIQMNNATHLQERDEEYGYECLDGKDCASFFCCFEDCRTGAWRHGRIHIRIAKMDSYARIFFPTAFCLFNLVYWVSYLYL
T1 sequence (P62813 28-455): as the sequence (P62813 28-455) above
T1 sequence (P63138 25-474 limits assumed): as the sequence (P63138 25-474 limits assumed) above
T1 sequence (P18507 40-467 isoform P18507-1 A118C limits assumed): as the sequence (P18507 40-467 isoform P18507-1 limits assumed) above, with A79C counted along it

Molecule: methyl-(PEG)11-maleimide [reference compound]
- persistent increase in the 3 μM GABA response ([1]; 1 mM, 10-min treatment): 71±25%

- response amplitude relative to the 3 μM GABA response ([2]; 3 μM GABA + 10 μM compound): 1.03±0.07
- response amplitude relative to the 3 μM GABA response ([2]; 3 μM GABA + 100 μM compound): 1.03±0.11
- potentiation of the GABA response [2]: no potentiation of the GABA response
Molecule: CCCC(=O)NCc1ccc(/N=N/c2ccc(C(=O)NCCN)cc2)cc1 [MPD021, (E)-N-(2-Aminoethyl)-4-((4-(butyramidomethyl)phenyl)diazenyl)benzamide]

Molecule: NCc1cc(=O)[nH]o1 [muscimol, reference compound]
- Hill coefficient n (GABAA receptors): 0.74
- EC50 (GABAA receptors): 4.8 µM
- Hill coefficient n (GABAc receptors): 1.2
- EC50 (GABAc receptors): 2 µM

Molecule: CC(C)c1cc(CCCC(=O)O)cc(C(C)C)c1O [compound 8]
- electrophysiological activity of propofol analogs (FIG. 59), words [2]: poor activity

Molecule: COC(=O)c1ccc(/N=N/c2ccc(CNC(=O)CCCc3cc(C(C)C)c(O)c(C(C)C)c3)cc2)cc1 [compound 9]
- electrophysiological activity of propofol analogs (FIG. 59), words [2]: poor activity

Molecule: O=C(CCCC[C@@H]1SC[C@@H]2NC(=O)N[C@@H]21)NCCCCCC(=O)NCc1cc(O)no1 [muscimol-biotin]
- Hill coefficient n (GABAA receptors): 1.4
- EC50 (GABAA receptors): 385 µM
- Hill coefficient n (GABAc receptors): 4.4
- EC50 (GABAc receptors): 20 µM

- ratio of 3 μM GABA response amplitudes post- vs. pre-MPC100 treatment ([1]; 100 μM MPC100, 10 min, after methyl-(PEG)11-maleimide pre-treatment): 1.1±0.1
- direct activation of wildtype receptors ([2]; 10 μM, no GABA): negligible
- response to GABA after MPC100 treatment and Ringer perfusion ([2]; wildtype receptors, 100 μM, 7 min): not significantly enhanced
Molecule: CC(C)c1cc(CCCC(=O)NCc2ccc(/N=N/c3ccc(C(=O)NCCNC(=O)CCOCCOCCOCCOCCOCCOCCOCCOCCOCCOCCOCCOCCOCCOCCOCCOCCOCCOCCOCCOCCOCCOCCOCCOCCNC(=O)CCN4C(=O)C=CC4=O)cc3)cc2)cc(C(C)C)c1O [MPC100, (E)-N-(82-(2,5-Dioxo-2,5-dihydro-1H-pyrrol-1-yl)-4,80-dioxo-7,10,13,16,19,22,25,28,31,34,37,40,43,46,49,52,55,58,61,64,67,70,73,76-tetracosaoxa-3,79-diazadooctacontyl)-4-((4-((4-(4-hydroxy-3,5-diisopropylphenyl)butanamido)methyl)phenyl)diazenyl)benzamide]
- potentiation after incubation and washout ([1]; 100 μM, ~5-7 min, then Ringer superfusion): persistent potentiation of the GABA response
- effect of tethering on potentiating action of diazepam ([1]; data not shown): eliminated the potentiating action of diazepam
- potentiation of the GABA response [2]: smaller than that produced by equimolar trans-dominant MPC088

Molecule: (E)-N-(2-Aminoethyl)-4-((4-((4-(4-hydroxy-3,5-diisopropylphenyl)butanamido)methyl)phenyl)diazenyl)benzamide [MPC088]
- electrophysiological activity of propofol analogs (FIG. 59), words [2]: strong GABAAR potentiation

- electrophysiological activity of propofol analogs (FIG. 59), words [2]: active
Molecule: CC(C)c1cc(CCCC(=O)Oc2ccc(/N=N/c3ccccc3)cc2)cc(C(C)C)c1O [compound 14, (E)-4-(phenyldiazenyl) phenyl 4-(4-hydroxy-3,5-diisopropylphenyl) butanoate]

Molecule: picrotoxin [reference compound]
- reduction of baseline current ([1]; PTX applied to cells treated with 100 μM MPC100 and washed): 85±7%
- reduction of the response to 2 μM GABA+10 μM trans-dominant MPC088 [3]: 94±1%
- reduction of the response to 60 μM trans-dominant MPC088 alone [3]: 95±2%
- effect of antagonist on the MPC088-elicited response ([2]; picrotoxin 100 μg, gabazine 30 μg, bicuculline 100 μM (so in the source)): eliminated

- electrophysiological activity of propofol analogs (FIG. 59), words [2]: strong GABAAR potentiation
Molecule: CC(C)c1cc(CCCC(=O)NCc2ccc(/N=N/c3ccc(C(=O)O)cc3)cc2)cc(C(C)C)c1O [compound 18, (E)-4-((4-((4-(4-hydroxy-3,5-diisopropylphenyl)butanamido)methyl)phenyl)diazenyl) benzoic acid]
